Source: patent US4988828A, “Phenoxypropyl derivatives” (Fujirebio Kabushiki Kaisha, priority 1987, dated 1991)

Key:
[1] = system: stomach; experiment: Gastric mucosal protecting activity (ulcer caused by 0.4N-HCl+50% ethanol); format: in vivo, rat (male Donryu); settings: 30 minutes before necrotizing substance
Procedure: Male Donryu rats (150 to 250 g) which had been caused to fast for 24 hours were used. The test compound was administered in a dose of 10 mg/kg. p.o., and 30 minutes later, a necrotizing substance (0.4N-HCl+50% ethanol) was administered orally in a dose of 5 ml/kg. One hour after the administration of the necrotizing substance, the stomach was dissected out and fixed with formalin. The area of ulcer which occurred was measured, and by comparison with a control group, the percent inhibition of the test compound was determined.

[2] = target: T1, histamine H2 receptor (Cavia porcellus, UniProt P47747); experiment: Histamine H2 antagonizing activity (isolated guinea pig right atrium, histamine dose-response); design: species or system guinea pig (Hartley-strain); settings: 32° C., test compound 1×10^-6, 1×10^-7 M, 10 min before histamine, Van Rossum method, read-out: pA2 (converted)
T1 construct: The right atrium was isolated in the Krebs-Henselite solution; from tissue; host or cells: isolated right atrium of male Hartley-strain guinea pigs
T1 sequence (P47747 whole entry): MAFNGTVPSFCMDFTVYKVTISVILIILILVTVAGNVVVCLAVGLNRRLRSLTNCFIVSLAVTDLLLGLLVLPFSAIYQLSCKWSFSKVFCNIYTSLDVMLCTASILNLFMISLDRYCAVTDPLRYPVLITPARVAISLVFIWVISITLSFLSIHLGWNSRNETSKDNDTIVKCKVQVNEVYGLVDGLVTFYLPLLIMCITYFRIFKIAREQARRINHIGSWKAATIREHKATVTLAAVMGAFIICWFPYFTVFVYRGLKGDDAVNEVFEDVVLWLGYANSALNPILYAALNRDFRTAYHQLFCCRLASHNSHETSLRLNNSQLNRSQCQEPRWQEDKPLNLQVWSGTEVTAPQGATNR
Procedure: Hartley-strain guinea pigs (male, weight 300 to 350 g) were killed by a blow on the head, and the heart was extracted. The right atrium was isolated in the Krebs-Henselite solution through which a mixed gas (O2 95%, CO2 5%) was circulated. The right atrium was suspended in an organ bath (30 ml) filled with the Krebs-Henselite solution kept at 32° C. The mixed gas was circulated through the organ bath, and a diastolic tension of 1 g was maintained. Contraction of the right atrium was recorded by a force-displacement transducer, and the heart rate was counted by a heart rate meter interlocked with the transducer.
Histamine (used in the form of dihydrochloride) was added cumulatively to the organ bath in a concentration of 1×10^-8 M to 3×10^-5 M. Thus, the dose-response curve of histamine was obtained. The inside of the organ bath was washed several times, and the test compound (1×10^-6, 1×10^-7 M) was added to the organ bath. Ten minutes later, the dose-response curve of histamine in the presence of the test compound was obtained.
The pA2 value of the test compound was determined from the first histamine dose-response curve and the histamine dose-response curve in the presence of the test compound by the method of J. M. Van Rossum (Arch. Int. Pharmacodyn. Ther., 143-299, 1963).

Kb [2] [nM]	Structure (SMILES)	Percent inhibition (area of ulcer, vs control group) ([1]; 10 mg/kg p.o.)	Percent inhibition (area of ulcer, vs control group) ([1]; 30 mg/kg p.o.) [%]
–	O=C(CSCc1ccco1)NCCCOc1cccc(CN2CCCCC2)c1 [Example 12, N-(3-[3-(piperidinomethyl)phenoxy]propyl)-2-(furfurylthio)acetamide]	63%	–
79.4	O=C(C[S+]([O-])Cc1ccco1)NCCCOc1cccc(CN2CCCCC2)c1 (centres unmarked) [Example 13, N-{3-[3-(piperidinomethyl)phenoxy]propyl}-2-(furfurylsulfinyl)acetamide]	72%	–
–	CN/C(=N/CCSCc1nc[nH]c1C)NC#N [cimetidine, reference compound]	No inhibition was observed	11
